Laboratory results reported in ChEMBL document CHEMBL5505961, “RIPK1 inhibitors: A key to unlocking the potential of necroptosis in drug development” (Eur J Med Chem, 2024).

Assays:
[1] = target: T1, Receptor-interacting serine/threonine-protein kinase 1 (Homo sapiens, UniProt Q13546)
T1 sequence (Q13546 whole entry): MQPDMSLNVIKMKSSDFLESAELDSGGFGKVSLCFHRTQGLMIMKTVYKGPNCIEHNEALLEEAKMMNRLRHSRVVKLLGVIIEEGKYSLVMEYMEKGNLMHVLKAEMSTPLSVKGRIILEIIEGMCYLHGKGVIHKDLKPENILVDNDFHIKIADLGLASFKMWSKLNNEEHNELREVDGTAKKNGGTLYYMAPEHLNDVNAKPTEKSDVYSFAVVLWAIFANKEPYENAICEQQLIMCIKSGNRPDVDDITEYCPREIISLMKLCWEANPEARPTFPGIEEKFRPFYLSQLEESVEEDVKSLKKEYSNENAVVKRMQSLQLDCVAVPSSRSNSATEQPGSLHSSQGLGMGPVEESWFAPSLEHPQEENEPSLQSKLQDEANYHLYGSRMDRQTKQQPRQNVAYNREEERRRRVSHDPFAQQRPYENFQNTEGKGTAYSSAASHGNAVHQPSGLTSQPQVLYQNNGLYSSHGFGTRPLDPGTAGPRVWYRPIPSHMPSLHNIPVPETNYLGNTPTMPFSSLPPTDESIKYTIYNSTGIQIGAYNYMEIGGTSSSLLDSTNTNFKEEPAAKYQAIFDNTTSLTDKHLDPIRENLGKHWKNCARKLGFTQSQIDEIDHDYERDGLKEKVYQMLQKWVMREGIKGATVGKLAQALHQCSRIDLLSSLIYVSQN

Jurkat [2] = assay: cells; details: Homo sapiens
[3] = target: T1, Receptor-interacting serine/threonine-protein kinase 1; remark: listed apart in the source
[4] = target: T2, Eukaryotic translation initiation factor 2-alpha kinase 3 (Homo sapiens, UniProt Q9NZJ5)
T2 sequence (Q9NZJ5 whole entry): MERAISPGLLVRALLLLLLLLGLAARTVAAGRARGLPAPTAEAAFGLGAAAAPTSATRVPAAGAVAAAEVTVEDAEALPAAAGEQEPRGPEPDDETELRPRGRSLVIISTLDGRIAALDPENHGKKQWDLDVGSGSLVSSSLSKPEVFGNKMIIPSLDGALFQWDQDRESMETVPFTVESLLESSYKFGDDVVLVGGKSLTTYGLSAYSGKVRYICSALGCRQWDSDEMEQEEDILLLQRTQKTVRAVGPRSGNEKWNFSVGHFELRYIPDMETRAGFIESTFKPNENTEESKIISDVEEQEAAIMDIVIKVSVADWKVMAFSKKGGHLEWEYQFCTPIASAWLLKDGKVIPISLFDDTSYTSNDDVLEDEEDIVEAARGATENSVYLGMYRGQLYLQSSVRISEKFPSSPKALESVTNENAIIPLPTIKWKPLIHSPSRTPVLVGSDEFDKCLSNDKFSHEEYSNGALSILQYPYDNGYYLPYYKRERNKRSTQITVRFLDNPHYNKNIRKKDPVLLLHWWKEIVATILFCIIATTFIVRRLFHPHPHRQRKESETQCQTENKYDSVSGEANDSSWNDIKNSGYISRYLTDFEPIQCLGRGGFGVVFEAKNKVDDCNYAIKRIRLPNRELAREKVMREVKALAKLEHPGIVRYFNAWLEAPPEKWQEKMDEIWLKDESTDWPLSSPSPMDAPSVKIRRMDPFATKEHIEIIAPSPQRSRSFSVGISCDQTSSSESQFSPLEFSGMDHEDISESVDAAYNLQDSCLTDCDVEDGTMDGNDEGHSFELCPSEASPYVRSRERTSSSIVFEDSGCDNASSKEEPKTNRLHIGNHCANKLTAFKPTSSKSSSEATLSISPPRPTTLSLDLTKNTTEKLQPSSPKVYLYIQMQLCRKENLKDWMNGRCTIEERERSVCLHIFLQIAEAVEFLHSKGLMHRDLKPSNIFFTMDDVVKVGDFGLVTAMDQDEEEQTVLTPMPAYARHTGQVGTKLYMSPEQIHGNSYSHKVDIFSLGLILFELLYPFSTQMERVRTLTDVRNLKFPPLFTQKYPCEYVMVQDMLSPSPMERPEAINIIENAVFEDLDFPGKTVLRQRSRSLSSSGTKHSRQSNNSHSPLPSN

[5] = target: T1, Receptor-interacting serine/threonine-protein kinase 1; remark: listed apart in the source
[6] = target: T1, Receptor-interacting serine/threonine-protein kinase 1; remark: listed apart in the source
in vitro [7] = details: mouse, L929 cells
HT-29 [8] = assay: cells; details: Homo sapiens, HT-29, 48 h
MEF = assay: cells; details: Mus musculus, 48 h
U-937 = assay: cells; details: Homo sapiens, U-937, 48 h
Jurkat [9] = assay: cells; details: Homo sapiens, 24 h
[10] = target: T1, Receptor-interacting serine/threonine-protein kinase 1; remark: listed apart in the source
[11] = target: T1, Receptor-interacting serine/threonine-protein kinase 1; remark: listed apart in the source
[12] = target: T2, Eukaryotic translation initiation factor 2-alpha kinase 3; remark: listed apart in the source
Jurkat [13] = assay: cells; details: Homo sapiens, 48 h
L929 = assay: cells; details: Mus musculus, L929, 24 h
in vitro [14] = details: mouse, liver microsomes
HT-29 [15] = assay: cells; details: Homo sapiens, HT-29, 24 h
HT-29 [16] = assay: cells; details: Homo sapiens

**Q.** Which IC50 [1] does the source give for Cc1ccc(F)c(NC(=O)Nc2ccc(-c3cccc4[nH]nc(N)c34)cc2)c1 [LINIFANIB] here?
**A.** The IC50 was 0.095 µM.

**Q.** For C[C@@H](Oc1cc(-c2cnn(C3CCNCC3)c2)cnc1N)c1c(Cl)ccc(F)c1Cl [CRIZOTINIB], which IC50 (Jurkat [2]) is on record?
**A.** The IC50 was 2.38 µM.

**Q.** Which IC50 [3] does the source give for Cc1cccc(CC(=O)N2CCc3cc(-c4cn(C)c5ncnc(N)c45)ccc32)n1 here?
**A.** Its IC50 is 0.0691 µM.

**Q.** What about the IC50 [4] of the same compound?
**A.** Its IC50 is 0.0097 µM.

**Q.** For Cc1cc(Nc2cc(N3CCN(C)CC3)nc(Nc3ccc(NC(=O)C4CC4)cc3)n2)n[nH]1, which IC50 [5] is on record?
**A.** The IC50 was 0.17 µM.

**Q.** Which IC50 [6] does the source give for O=C(c1cc2c(-c3ccc(F)cc3)cccc2s1)N1CCOCC1 here?
**A.** Its IC50 is 0.11 µM.

**Q.** For O=C(NCCc1ccccc1Cl)c1cn(-c2ccccc2)nn1, which IC50 [1] is on record?
**A.** The IC50 was 0.25 µM.

**Q.** With CC(=O)Nc1nc2ccc(-c3cnc(Cl)c(NC(=O)Cc4ccccc4)c3)cc2s1 as the compound, how does the IC50 [3] read?
**A.** Its IC50 is 0.0182 µM.

**Q.** What about the EC50 at 48 h (in vitro [7]) of the same compound?
**A.** Its EC50 at 48 h is 0.76 µM.

**Q.** And the EC50 (HT-29 [8])?
**A.** Its EC50 is 1.2 µM.

**Q.** What about the EC50 (MEF) of the same compound?
**A.** The EC50 was 0.95 µM.

**Q.** And the EC50 (U-937)?
**A.** Its EC50 is 1.33 µM.

**Q.** For CN1C(=O)C(Cc2c[nH]c3c(Cl)cccc23)NC1=S (configuration not stated), which IC50 (Jurkat [9]) is on record?
**A.** Its IC50 is 0.18 µM.

**Q.** With O=C(Nc1cn2cc(-c3cnc4c(c3)N(C(=O)OC3CCOCC3)CC4)ccc2n1)C1CC1 as the compound, how does the Kd [10] read?
**A.** The Kd was 0.0087 µM.

**Q.** What does the source list for Cn1cc(-c2ccc3c(c2)CCN3C(=O)Cc2ccc(C(F)(F)F)cn2)c2c(N)ncnc21?
**A.** IC50 [11]: 0.0029 µM; IC50 [12]: > 5 µM

**Q.** For CN1C(=O)NC(Cc2c[nH]c3ccccc23)C1=O (configuration not stated), which IC50 (Jurkat [9]) is on record?
**A.** Its IC50 is 0.21 µM.

**Q.** With Cc1ccc(C2CC(=O)NC(SCC(=O)Nc3nccs3)=C2C#N)cc1 (configuration not stated) as the compound, how does the IC50 (Jurkat [13]) read?
**A.** Its IC50 is 0.74 µM.

**Q.** Which results are given for O=C(NC1CCOCC1)c1nsc2ncc(-c3ccc4nc(NC(=O)C5CC5)sc4c3)cc12?
**A.** Kd [10]: 0.013 µM; EC50 (L929): 0.0019 µM; IC50 [1]: 0.0058 µM; half-life (in vitro [14]): > 1.5 h; EC50 (HT-29 [15]): 0.005 µM

**Q.** Which results are given for Cc1ccc(C(=O)Nc2ccc(CN3CCN(C)CC3)c(C(F)(F)F)c2)cc1C#Cc1cnc2cccnn12 [PONATINIB]?
**A.** EC50 (HT-29 [16]): 0.05 µM; EC50 (Jurkat [2]): 0.089 µM

**Q.** Which EC50 (L929) does the source give for CC(=O)NC1=NC2C=CC(c3cnc4ccn(C(=O)OC5CCCCC5)c4c3)=CC2S1 (configuration not stated) here?
**A.** Its EC50 is 0.026 µM.

**Q.** And the EC50 (HT-29 [15])?
**A.** Its EC50 is 0.058 µM.
